Test results published in publication PMC12040169 (PLOS Biology, 2025).

Experiment: in vitro
Conditions: human, hela cells, % viability

SMILES: CC(C)c1ccc(C(C)NC(=O)Cn2cccc(C(=O)Nc3ccc(F)cc3)c2=O)cc1 (centres unmarked) [CBK286043]
- viability at 28.5 h, 10 µM: 89.3%

SMILES: Fc1cccc(SCc2ccccc2)c1 [CBK002912]
- viability at 28.5 h, 10 µM: 117%

SMILES: COc1cc(CN2CCN(Cc3ccccc3)CC2)cc([N+](=O)[O-])c1O [CBK261574]
- viability at 28.5 h, 10 µM: 99%

SMILES: CCN1CCN(Cc2c(C3CCCC3)[nH]c3ncccc23)CC1 [CBK285386]
- viability at 28.5 h, 10 µM: 97%

SMILES: CN1CCN(c2n[nH]c(N)n2)CC1 [CBK026743]
- viability at 28.5 h, 10 µM: 90.5%

SMILES: Cc1cc(C)c2c(CC(=O)NNC(=O)COc3ccccc3)coc2c1 [CBK269169]
- viability at 28.5 h, 10 µM: 94.1%

SMILES: Cc1nn(C)c(=O)c2c(C)noc12 [CBK001462]
- viability at 28.5 h, 10 µM: 101%

SMILES: Cc1cc(O)n2nc(CC(=O)NCCCn3c(C)cccc3=O)nc2n1 [CBK306532]
- viability at 28.5 h, 10 µM: 97.1%

SMILES: COc1ccc(Cl)cc1NC(=O)NCCN1CCCCC1 [CBK268169]
- viability at 28.5 h, 10 µM: 112%

SMILES: COC(=O)COc1ccc(C2Nc3c(Cl)ccc(C(=O)O)c3C3C=CCC32)cc1 (centres unmarked) [CBK268961]
- viability at 28.5 h, 10 µM: 99.9%

SMILES: Cc1ncc(-c2ccc3ccccc3c2)s1 [CBK019439B]
- viability at 28.5 h, 10 µM: 91.5%

SMILES: CC(C)NC(=O)NC[C@H]1C[C@@H]2CCN1C[C@@H]2c1cc(-c2cccs2)nn1C [CBK289103]
- viability at 28.5 h, 10 µM: 90%

SMILES: COC(=O)CCC(=O)NNC(=O)c1cccc(Br)c1 [CBK261606]
- viability at 28.5 h, 10 µM: 107%

SMILES: COc1ccc(Oc2cncc(OC3CCN(Cc4ccc(Cl)c(Cl)c4)C3)n2)cc1OC (centres unmarked) [CBK084391]
- viability at 28.5 h, 10 µM: 115%

SMILES: Nc1c2c(nc3ccccc13)CCCC2O (centres unmarked) [CBK008271F]
- viability at 28.5 h, 10 µM: 95.7%

SMILES: Nc1nc2cccnc2cc1-c1cccc(C(F)(F)F)c1 [CBK081200]
- viability at 28.5 h, 10 µM: 103%

SMILES: COc1ccc(-c2nc3ccccc3o2)cc1NC(=O)C(C)Oc1ccc(Cl)cc1Cl (centres unmarked) [CBK266787]
- viability at 28.5 h, 10 µM: 76.4%

SMILES: CCCN1CC2(CCN(Cc3nccn3C)CC2)CC1C(=O)O (centres unmarked) [CBK307658]
- viability at 28.5 h, 10 µM: 83.2%

SMILES: COc1ccc2[nH]c3c(c2c1)CCOC31CCN(C(=O)Nc2ccc(C(C)C)cc2)CC1 [CBK047154]
- viability at 28.5 h, 10 µM: 95.5%

SMILES: CC(C)CNc1nnc(-c2ccccc2[N+](=O)[O-])s1 [CBK076755]
- viability at 28.5 h, 10 µM: 82.1%

SMILES: CC(C)(C)c1ccc(C(=O)CSCC(=O)Nc2ccc3ccccc3c2)cc1 [CBK268394]
- viability at 28.5 h, 10 µM: 85.2%

SMILES: Cc1noc(C)c1S(=O)(=O)Nc1ccnn1C [CBK062073]
- viability at 28.5 h, 10 µM: 90.1%

SMILES: COCCNc1cc(-c2ccccc2N(C)C)ncn1 [CBK090790]
- viability at 28.5 h, 10 µM: 109%

SMILES: Cc1cc(C(=O)N2CCC(C(=O)NC(c3ccccc3)c3ccc4ccccc4n3)CC2)no1 (centres unmarked) [CBK059641]
- viability at 28.5 h, 10 µM: 100%

SMILES: COC(=O)c1cn([C@H]2CO[C@H]3[C@@H]2OC[C@@H]3NC(=O)Nc2cccc(C(F)(F)F)c2)nn1 [CBK289501]
- viability at 28.5 h, 10 µM: 78.9%

SMILES: CCNCCOc1c(C)cc(C)cc1C [CBK270137C]
- viability at 28.5 h, 10 µM: 108%

SMILES: CC1(C)COC(=O)N1C1CCN(C(=O)CNC(=O)c2cccs2)CC1 [CBK044501]
- viability at 28.5 h, 10 µM: 93.1%

SMILES: CC(NC(=O)C1CCN(Cc2ccccn2)CC1)c1cccc2ccccc12 (centres unmarked) [CBK148662]
- viability at 28.5 h, 10 µM: 98.2%

SMILES: O=C(N[C@H]1CO[C@H]2[C@@H]1OC[C@@H]2n1nnnc1Oc1ccc(-n2ccnc2)cc1)c1ccco1 [CBK289486]
- viability at 28.5 h, 10 µM: 91.9%

SMILES: CC(C)Cc1nnc(-c2ccccc2Cl)n1CC1CC1 [CBK200097]
- viability at 28.5 h, 10 µM: 98.1%

SMILES: COc1ccc(NC(=O)c2ccc(N(C)Cc3ccccc3)c([N+](=O)[O-])c2)cc1 [CBK268094]
- viability at 28.5 h, 10 µM: 86.4%

SMILES: CCn1cc(C(=O)N2CCC(Oc3ccccc3C)(C(=O)O)CC2)cn1 [CBK306699]
- viability at 28.5 h, 10 µM: 118%

SMILES: O=C(/C=C/c1cn(C2CC(O)C(CO)O2)c(=O)[nH]c1=O)NCCCCCCNC(=O)C(F)(F)F (centres unmarked) [CBK201310]
- viability at 28.5 h, 10 µM: 94.3%

SMILES: Cc1nn2c(O)c(CCO)c(C(=O)O)nc2c1-c1ccc(Cl)cc1 [CBK286699]
- viability at 28.5 h, 10 µM: 108%

SMILES: Cc1csc(N2CCC(NC3COc4ccc(F)cc4C3)CC2)n1 (centres unmarked) [CBK304751]
- viability at 28.5 h, 10 µM: 101%
